According to patent US5334716A, “Heterocyclic derivatives” (Fujisawa Pharmaceutical Co., Ltd., priority 1991, dated 1994):

These molecules were tested against prostatic testosterone 5α-reductase (assay: Inhibitory activity on testosterone 5α-reductase in rats). Details: rat ventral prostate 5α-reductase suspension, 3H-testosterone 2.2×10^-9 M, 50 μM NADPH, pH 6.5, 37° C., 30 minutes.
Format: biochemical, rat (Spraque-Dawley)
Text: [2] Inhibitory activity on testosterone 5α-reductase in rats
1,2,6,7-^3 H-Testosterone (85-105 Ci/mmol) is a mixture of 1,2,6,7-^3 H-testosterone and testosterone which includes 85-105 Ci of 1,2,6,7-^3 H-testosterone per mmol of testosterone and is purchased from New England Nuclear, Boston, Mass., U.S.A.
Aquazol-2 (Aquazol-2 Universal LSC Cocktail): trademark, purchased from New England Nuclear, Boston, Mass., U.S.A. ii) Preparation of prostatic testosterone 5α-reductase
Mature Spraque-Dawley male rats (7-8 weeks old) were sacrificed by diethyl ether. The ventral prostates were dissected to be free of their capsules and their combined volume was measured by displacement in several milliliters of ice-cold medium A (0.32M sucrose, 0.1 mM dithiothreitol and 20 mM sodium phosphate, pH 6.5). Unless specified, all the following procedures were carried out at 0°-4° C. The prostates were drained, minced, and then homogenized in 3-4 tissue volumes of medium A with Pyrex-glass homogenizer. The homogenate was fractioned by differential centrifugations at […]. The resulting pellets were resuspended in medium A. The suspension (20-30 mg protein/ml) was stored at -80° C. […]
iii) Testosterone 5α-reductase assay
The reaction solution contains 1 mM dithiothreitol, 40 mM sodium phosphate pH 6.5, 50 μM NADPH, 1,2,6,7-^3 H-testosterone/testosterone (2.2×10^-9 M) and the suspension prepared above (0.8 mg of protein) in a total volume of 565 μl. Test Compound was added in 10 μl of 10% ethanol whereas control tubes received the same volume of 10% ethanol. The reaction was started with the addition of the enzyme suspension. After incubation at 37° C. for 30 minutes, the reaction was extracted with 1 ml of ethyl acetate. Fifty μl of ethyl acetate phase was chromatographed on a Merck silica plastic sheet Kieselgel 60 F254, using ethyl acetate: cyclohexane (1:1) as the developing solvent system. The plastic sheet was air dried and cut the testosterone and the 5α-dihydrotestosterone areas. The radioactivity was counted in 5 ml of Aquazol-2 in Packard scintillation counter (PACKARD TRI - CARB 4530), and an inhibitory ratio was calculated.

Compound | IC50
CC(C)Cc1ccc(C(Oc2cccc(C(=O)c3cc(CCCC(=O)O)c4ccccn34)c2)c2ccc(CC(C)C)cc2)cc1 [(3), 4-[3-[3-[Bis(4-isobutylphenyl)methoxy]benzoyl]indolizin-1-yl]butyric acid] | 6.7 nM
CCCCC(Oc1ccc(C(=O)c2cc(CCCC(=O)O)n3ccccc23)cc1)c1ccc(CC(C)C)cc1 (centres unmarked) [(5), 4-[1-[4-[1-(4-Isobutylphenyl)pentyloxy]benzoyl]indolizin-3-yl]butyricacid] | 1.8 nM
CC(C)Cc1ccc(C(Nc2cccc(C(=O)c3cc(CCCC(=O)O)c4ccccn34)c2)c2ccc(CC(C)C)cc2)cc1 [Compound (1), 4-[3-[3-[Bis(4-isobutylphenyl)methylamino]benzoyl]indolizin-1-yl]butyric a cid] | 2.3 nM

The next molecules have a lower IC50 than those just listed; values first:

IC50 | Compound
0.44 nM | CC(C)Cc1ccc(C(Nc2ccc(C(=O)c3cc(CCCC(=O)O)n4ccccc34)cc2)c2ccc(CC(C)C)cc2)cc1 [(2), 4-[1-[4-[Bis(4-isobutylphenyl)methylamino]benzoyl]indolizin-3-yl]butyric a cid]
0.55 nM | CCC(Oc1ccc(C(=O)c2cc(CCCC(=O)O)n3ccccc23)cc1)c1ccc(CC(C)C)cc1 (centres unmarked) [(4), 4-[1-[4-[1-(4-Isobutylphenyl)propyloxy]benzoyl]indolizin-3-yl]butyric acid]
